Key:
Type in all cases: cell-based
[1] = target: T1, TRPV3 T636A (Homo sapiens, UniProt Q8NET8, T636A); test: single-channel inside-out patch recordings of TRPV3 T636A mutant; settings: ROSA 100 μM co-applied with 2-APB 50 μM; n = 4
T1 construct: expressed in transfected cells; host or cells: HEK293T
T1 sequence (Q8NET8 1-790 T636A): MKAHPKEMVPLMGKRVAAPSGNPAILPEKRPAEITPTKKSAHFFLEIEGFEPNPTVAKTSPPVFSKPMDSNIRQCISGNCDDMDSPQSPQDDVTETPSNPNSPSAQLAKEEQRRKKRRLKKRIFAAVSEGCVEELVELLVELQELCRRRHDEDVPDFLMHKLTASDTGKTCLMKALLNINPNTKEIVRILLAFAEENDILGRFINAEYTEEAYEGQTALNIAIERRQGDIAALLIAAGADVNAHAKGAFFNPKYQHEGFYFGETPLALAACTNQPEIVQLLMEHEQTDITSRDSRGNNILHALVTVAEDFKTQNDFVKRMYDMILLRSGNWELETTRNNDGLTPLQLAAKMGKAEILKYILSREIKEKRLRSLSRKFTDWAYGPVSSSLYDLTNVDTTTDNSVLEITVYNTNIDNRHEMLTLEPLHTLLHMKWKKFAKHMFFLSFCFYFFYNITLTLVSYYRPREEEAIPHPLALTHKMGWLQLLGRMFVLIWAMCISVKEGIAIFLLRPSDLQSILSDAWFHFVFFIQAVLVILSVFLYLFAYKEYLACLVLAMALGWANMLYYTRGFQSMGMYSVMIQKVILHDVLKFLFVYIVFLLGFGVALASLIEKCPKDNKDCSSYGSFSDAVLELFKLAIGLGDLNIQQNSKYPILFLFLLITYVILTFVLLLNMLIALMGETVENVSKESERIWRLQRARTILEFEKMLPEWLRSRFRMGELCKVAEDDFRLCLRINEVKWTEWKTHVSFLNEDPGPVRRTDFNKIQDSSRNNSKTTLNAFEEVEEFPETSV
Protocol: (§1) HEK293T cell line was obtained from the Cell Resource Center, Peking Union Medical College. HEK293T cells were maintained in Dulbecco’s modified Eagle’s medium (DMEM, Gibco) supplemented with 10% fetal bovine serum at 37 °C with 5% CO2. […] The next day, determine the plasmid transfection status by observing green fluorescence based on expression of enhanced GFP as an indicator. […] When conducting experiments on HEK293T cells transfected with G573S point mutant TRPV3 plasmid, we replaced culture medium with or without compounds after 4 h of transfection and then observed green fluorescence of HEK293T cell after 10 h. As for the relative fluorescence intensity, we convert the image to 8 bit grayscale using ImageJ (Https://imagej.net/software/fiji/downloads) and set an appropriate threshold value to reduce background noise and enhance the image contrast.
(§2) All patch-clamp recordings were conducted 16 to 24 h after transfection using an EPC10 amplifier powered by PatchMaster software (HEKA) (https://www.heka.com/downloads/downloads_main.html#down_patchmaster) at room temperature. […] Currents were recorded at a potential ramp from −100 mV to +100 mV for 1000 ms with 1000-ms intervals (for whole-cell recordings) or a persistent potential of −60 mV (inside-out patch recordings). […]

[2] = target: T2, hTRPV1 (Homo sapiens, UniProt Q8NER1); test: whole-cell patch-clamp of hTRPV1 currents activated by capsaicin; settings: ROSA 50 μM; agonist capsaicin 1 μM; read-out: inhibition of TRPV1 currents
T2 construct: expressed in transfected cells; host or cells: HEK293T
Protocol: as §1, §2

[3] = target: T3, hTRPM8 (Homo sapiens, UniProt Q7Z2W7); test: whole-cell patch-clamp of hTRPM8 currents activated by menthol; settings: ROSA 50 μM; agonist menthol 30 μM (legend: 500 μM)
T3 construct: expressed in transfected cells; host or cells: HEK293T
Protocol: as §1, §2

[4] = target: T4, mTRPV2 (Mus musculus, UniProt Q9WTR1); test: whole-cell patch-clamp of mTRPV2 currents activated by 2-APB; settings: ROSA 50 μM; agonist 2-APB 2 mM; read-out: inhibition of TRPV2 currents
T4 construct: expressed in transfected cells; host or cells: HEK293T
T4 sequence (Q9WTR1 1-756): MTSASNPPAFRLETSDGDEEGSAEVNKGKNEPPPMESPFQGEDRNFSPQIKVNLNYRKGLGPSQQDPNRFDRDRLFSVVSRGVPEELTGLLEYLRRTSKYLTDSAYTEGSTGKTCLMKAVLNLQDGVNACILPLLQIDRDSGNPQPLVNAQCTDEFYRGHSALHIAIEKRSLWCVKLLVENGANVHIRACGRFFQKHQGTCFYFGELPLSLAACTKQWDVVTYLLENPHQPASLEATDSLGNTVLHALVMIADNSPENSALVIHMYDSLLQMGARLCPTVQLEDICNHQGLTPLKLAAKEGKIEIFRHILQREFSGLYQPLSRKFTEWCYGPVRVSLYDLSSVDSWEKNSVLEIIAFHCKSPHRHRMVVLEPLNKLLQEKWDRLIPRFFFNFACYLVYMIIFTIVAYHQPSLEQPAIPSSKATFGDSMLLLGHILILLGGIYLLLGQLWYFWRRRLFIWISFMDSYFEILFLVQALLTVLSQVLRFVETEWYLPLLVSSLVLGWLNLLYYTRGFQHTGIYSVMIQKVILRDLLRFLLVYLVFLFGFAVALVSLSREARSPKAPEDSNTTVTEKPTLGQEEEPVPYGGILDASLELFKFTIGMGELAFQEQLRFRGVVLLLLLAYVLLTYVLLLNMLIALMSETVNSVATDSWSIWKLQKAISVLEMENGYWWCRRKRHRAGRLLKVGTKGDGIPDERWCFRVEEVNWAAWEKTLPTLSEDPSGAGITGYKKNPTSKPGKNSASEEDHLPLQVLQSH
Protocol: as §1, §2

T2 sequence (Q8NER1 whole entry): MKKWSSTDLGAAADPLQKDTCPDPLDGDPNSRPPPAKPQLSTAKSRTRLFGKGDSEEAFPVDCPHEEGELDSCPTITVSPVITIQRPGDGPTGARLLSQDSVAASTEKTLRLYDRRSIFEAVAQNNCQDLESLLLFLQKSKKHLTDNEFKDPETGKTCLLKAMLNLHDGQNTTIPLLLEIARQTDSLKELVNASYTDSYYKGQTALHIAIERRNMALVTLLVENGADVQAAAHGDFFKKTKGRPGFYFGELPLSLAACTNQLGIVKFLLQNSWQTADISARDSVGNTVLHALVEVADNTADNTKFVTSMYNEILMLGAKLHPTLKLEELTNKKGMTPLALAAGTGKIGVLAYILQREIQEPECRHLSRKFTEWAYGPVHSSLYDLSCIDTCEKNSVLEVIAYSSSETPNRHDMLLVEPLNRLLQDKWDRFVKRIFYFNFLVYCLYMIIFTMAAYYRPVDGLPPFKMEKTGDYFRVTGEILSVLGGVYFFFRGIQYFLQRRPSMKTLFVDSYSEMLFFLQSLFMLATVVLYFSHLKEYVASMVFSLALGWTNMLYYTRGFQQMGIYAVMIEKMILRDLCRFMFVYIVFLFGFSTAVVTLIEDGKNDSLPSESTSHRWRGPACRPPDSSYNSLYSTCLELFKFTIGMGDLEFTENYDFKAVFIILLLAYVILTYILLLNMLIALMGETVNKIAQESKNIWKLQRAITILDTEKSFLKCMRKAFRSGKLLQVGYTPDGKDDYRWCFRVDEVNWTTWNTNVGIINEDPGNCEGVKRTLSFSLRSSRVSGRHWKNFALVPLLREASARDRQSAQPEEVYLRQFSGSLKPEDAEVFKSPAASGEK
T3 sequence (Q7Z2W7 whole entry): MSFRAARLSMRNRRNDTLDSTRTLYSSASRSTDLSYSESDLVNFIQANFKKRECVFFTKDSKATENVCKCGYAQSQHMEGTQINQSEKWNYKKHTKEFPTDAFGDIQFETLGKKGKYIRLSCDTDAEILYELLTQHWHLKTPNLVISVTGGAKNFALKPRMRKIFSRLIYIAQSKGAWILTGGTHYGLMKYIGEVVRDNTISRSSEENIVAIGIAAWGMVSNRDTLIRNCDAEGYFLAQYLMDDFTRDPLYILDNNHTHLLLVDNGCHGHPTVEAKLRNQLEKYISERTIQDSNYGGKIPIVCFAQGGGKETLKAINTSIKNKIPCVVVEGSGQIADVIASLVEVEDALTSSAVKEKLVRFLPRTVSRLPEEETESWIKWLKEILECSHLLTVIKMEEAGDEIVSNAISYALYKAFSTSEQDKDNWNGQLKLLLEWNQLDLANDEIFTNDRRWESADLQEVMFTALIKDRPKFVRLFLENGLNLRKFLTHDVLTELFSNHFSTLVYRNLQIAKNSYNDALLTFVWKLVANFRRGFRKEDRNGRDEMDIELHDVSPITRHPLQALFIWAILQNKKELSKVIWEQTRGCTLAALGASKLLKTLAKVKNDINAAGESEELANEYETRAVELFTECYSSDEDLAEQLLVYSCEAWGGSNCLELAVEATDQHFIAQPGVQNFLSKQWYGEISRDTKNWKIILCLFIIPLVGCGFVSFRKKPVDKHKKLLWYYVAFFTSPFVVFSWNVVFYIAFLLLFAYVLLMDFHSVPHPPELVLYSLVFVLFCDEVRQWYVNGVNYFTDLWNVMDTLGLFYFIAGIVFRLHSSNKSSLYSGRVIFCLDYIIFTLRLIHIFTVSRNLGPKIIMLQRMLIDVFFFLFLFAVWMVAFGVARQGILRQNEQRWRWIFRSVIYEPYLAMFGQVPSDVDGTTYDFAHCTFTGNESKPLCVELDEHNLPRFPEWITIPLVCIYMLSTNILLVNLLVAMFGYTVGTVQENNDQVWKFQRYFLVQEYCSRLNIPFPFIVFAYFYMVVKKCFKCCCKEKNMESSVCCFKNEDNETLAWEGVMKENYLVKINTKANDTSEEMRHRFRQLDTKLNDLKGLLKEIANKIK

Question: Which “single-channel open probability, T636A mutant” value [1] does the source give for `O=C(/C=C/c1ccc(O)c(O)c1)O[C@H](Cc1ccc(O)c(O)c1)C(=O)O` [ROSA, rosmarinic acid] here?
Answer: 0.67

Question: And the inhibition at 50 µM [2]?
Answer: 1.8 ± 11.7%

Question: And the “inhibition of TRPM8 currents” value [3]?
Answer: 0.7 ± 6.7%

Question: What about the inhibition at 50 µM [4] of the same molecule?
Answer: 21 ± 6.1%

From publication PMC12206033, “Selective inhibition of TRPV3 channel by natural rosmarinic acid and its analogs for alleviation of skin lesions through downregulation of NF-κB pathway” (The Journal of Biological Chemistry, 2025)
